{"source": "paper PMC8160911", "about": "“Anti-Melanogenic Properties of Velutin and Its Analogs” (Molecules, 2021)", "key": {"[1]": {"assay": "ABTS free radical scavenging activity", "conditions": "for EC50: 10 min in the dark at RT", "experimental": "In order to evaluate the antioxidant activity of the velutin derivatives, the ABTS radical scavenging activity was determined, as previously described. To generate the ABTS radical, 10 mL of 7 mM ABTS was mixed with 176 μL of 140 mM potassium peroxydisulfate in dH2O, and incubated in the dark at room temperature (RT) for 16 h, prior to use. The ABTS radical solution was diluted with absolute methanol, to obtain an absorbance of near 0.7 at 734 nm. Aliquots of 100 μL of each derivative in the indicated concentration range 2 to 200 μM were added to 100 μL of the diluted ABTS radical solution, and incubated for 10 min in the dark at RT. The absorbance was then measured at 732 nm using a SpectraMax M5 Multi-Mode microplate reader (Molecular Devices, Sunnyvale, CA, USA). The ABTS radical scavenging activity was calculated as follows:ABTS radical scavenging activity (%) = 1 − (Asample/Acontrol) × 100(1)"}, "mushroom tyrosinase": {"target": "T1, mushroom tyrosinase (Agaricus bisporus, UniProt C7FF04)", "T1 construct": "purchased Sigma-Aldrich", "T1 sequence (C7FF04 1-392 limits assumed)": "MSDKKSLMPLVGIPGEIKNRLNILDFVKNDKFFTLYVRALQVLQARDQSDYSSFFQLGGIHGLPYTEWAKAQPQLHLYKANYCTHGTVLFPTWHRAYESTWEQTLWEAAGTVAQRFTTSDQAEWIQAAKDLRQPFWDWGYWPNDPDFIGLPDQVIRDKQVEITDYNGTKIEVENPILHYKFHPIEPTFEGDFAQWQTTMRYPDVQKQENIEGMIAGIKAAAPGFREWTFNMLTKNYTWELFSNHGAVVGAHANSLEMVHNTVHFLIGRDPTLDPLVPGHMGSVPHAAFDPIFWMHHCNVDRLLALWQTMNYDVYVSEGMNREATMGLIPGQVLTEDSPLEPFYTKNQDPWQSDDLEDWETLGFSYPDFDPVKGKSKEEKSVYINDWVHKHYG", "assay": "In vitro mushroom tyrosinase inhibition (dopachrome formation from L-tyrosine)", "format": "biochemical", "experimental": "The inhibitory effect of velutin derivatives on tyrosinase activity was assessed by the amount of dopachrome synthesized from the catalytic reaction of tyrosinase. […] Then, 100 μL of 0.4 mM L-tyrosine was added to each well, followed by incubation for an additional 10 min at 37 °C."}, "[2]": {"system": "B16F10 murine melanoma cells", "assay": "Cell viability / cytotoxicity by MTT assay", "format": "cell-based", "conditions": "for death rate: 20 μM", "experimental": "(§1) B16F10 murine melanoma cells were cultured in DMEM medium (Gibco, Gaithersburg, USA) supplemented with 10% heat-inactivated fetal bovine serum (Gibco), 100 units/mL penicillin, and 100 μg/mL streptomycin (Gibco), at 37 °C under humidified 5% CO2.\nThe viability of B16F10 cells was determined using an MTT assay, as previously described. In brief, B16F10 cells were seeded in 24-well plates at a density of 1 × 10^4 cells per well. After 24 h, the cells were treated with the indicated concentrations of velutin derivatives for 48 h. The cells were then incubated with MTT solution for 4 h, and the reduced formazan crystals were dissolved in DMSO. The resulting solution was transferred to 96-well plates, and the absorbance was measured at 540 nm, using a SpectraMax M5 Multi-Mode microplate reader.\nFigure 2 Cytotoxicity of velutin derivatives in the B16F10 melanoma cells. B16F10 cells were treated with 0.1% DMSO as vehicle, or with 20 μM of each derivative, for 24 h. Cell viability was determined by the MTT assay, as described in the Experimental Section. Data are expressed as the mean ± SD of three independent experiments (** p < 0.005, *** p < 0.001 compared to the control cells)."}, "B16F10 melanoma cells": {"system": "B16F10 melanoma cells", "assay": "Melanin content in α-MSH-stimulated melanoma cells", "format": "cell-based, murine", "conditions": "48 h; for effect on α-MSH-stimulated melanogenesis: 10 μM; for inhibition at 10 µM: Mus musculus, B16-F10, 10 μM, read-out: inhibition of α-MSH-stimulated melanogenesis", "experimental": "as §1\nThe melanin content was determined as previously described, with some modifications. The melanoma cells were cultured in a 6-well plate for 24 h. They were treated with the indicated concentrations of velutin derivatives for a further 48 h, in the presence of 100 nM α–MSH. After washing twice with chilled Dulbecco’s phosphate buffered saline supplemented with calcium chloride and magnesium chloride (D-PBS, Gibco), the resulting cells were detached by incubation with trypsin–EDTA solution. After centrifugation at 1000 rpm for 3 min, the cell pellet was dissolved in 150 μL of 1 M NaOH containing 10% DMSO for 1 h at 60 °C. The melanin content was determined by the absorbance at 405 nm, using the microplate reader.\n(§2) Figure 3 Effect of velutin derivatives on intracellular melanin synthesis in B16F10 melanoma cells. B16F10 cells were treated with 0.1% DMSO as vehicle, or with 10 μM of each derivative, for 48 h. (A) Melanin content in the B16F10 cells was determined using a photometric method, as described in the Experimental Section. (B) Cellular tyrosinase activity was determined by measuring dopachrome generated by the enzymatic reaction of cell lysates with L-DOPA. Data are expressed as the mean ± SD of three independent experiments (** p < 0.005, *** p < 0.001 as compared to α-MSH-stimulated B16F10 cells)."}, "[3]": {"system": "intracellular tyrosinase in B16F10 cells", "assay": "Cellular tyrosinase activity in α-MSH-stimulated melanoma cells (L-DOPA to dopachrome in lysates)", "format": "cell-based, murine", "conditions": "48 h; for effect on α-MSH-mediated intracellular tyrosinase activation / reversal of α-MSH-mediated tyrosinase activation: 10 μM, 100 nM α-MSH", "experimental": "as §1\nTyrosinase activity in B16 cells was examined on the basis of the amount of dopachrome produced from the catalytic reaction of intracellular tyrosinase. In brief, the melanoma cells were cultured in a 6-well plate for 24 h, followed by treatment with different concentrations of velutin derivatives for a further 48 h, in the presence of 100 nM of α–MSH. After washing twice with ice-cold D-PBS, the cells were lysed in 200 μL of radio-immunoprecipitation assay (RIPA) buffer (Sigma-Aldrich), containing protease and phosphatase inhibitors. After centrifugation of the cell lysate collected from each well at 15,000× g for 15 min, 100 μL of supernatant was mixed with 100 μL of 1 mM L-DOPA in PBS (pH 6.8), followed by incubation for 30 min at 37 °C. The absorbance of dopachrome was measured at 475 nm using the microplate reader. Data were normalized with protein concentration, determined by bicinchoninic acid assay.\nas §2"}, "[4]": {"conditions": "50 U/mL mushroom tyrosinase, L-tyrosine substrate, read-out: IC50 in Mushroom Tyrosinase Activity"}}, "note": "Entries after “also recorded” stand apart in the source; their conditions may differ. Like-named read-outs stand apart in the source and are kept apart here."}
{"molecule": "COc1cc(O)c2c(=O)cc(-c3ccc(O)c(O)c3)oc2c1", "note": "[Compound V8, 2-(3,4-Dihydroxyphenyl)-5-hydroxy-7-methoxy-4H-chromen-4-one]", "values": [{"measurement": "EC50", "setting": "[1]", "value": 5.47, "unit": "µM"}, {"measurement": "IC50", "setting": "mushroom tyrosinase; [4]", "value": 202, "unit": "µM"}, {"measurement": "death rate", "setting": "[2]", "value": 71.8, "unit": "%"}]}
{"molecule": "COc1cc(O)c2c(=O)cc(-c3ccc(OC)c(OC)c3)oc2c1", "note": "[Compound V9, 2-(3,4-Dimethoxyphenyl)-5-hydroxy-7-methoxy-4H-chromen-4-one]", "values": [{"measurement": "EC50", "setting": "[1]", "value": 100, "unit": "µM"}, {"measurement": "IC50", "setting": "mushroom tyrosinase; [4]", "value": 715, "unit": "µM"}, {"measurement": "effect on α-MSH-stimulated melanogenesis", "setting": "B16F10 melanoma cells; 100 nM α-MSH", "value": "not significantly changed"}, {"measurement": "effect on α-MSH-mediated intracellular tyrosinase activation", "setting": "[3]", "value": "did not"}]}
{"molecule": "COc1ccc2c(=O)cc(-c3ccc(O)c(OC)c3)oc2c1", "note": "[Compound V2, 2-(4-Hydroxy-3-methoxyphenyl)-7-methoxy-4H-chromen-4-one]", "values": [{"measurement": "EC50", "setting": "[1]", "value": 21.9, "unit": "µM"}, {"measurement": "effect on α-MSH-stimulated melanogenesis", "setting": "B16F10 melanoma cells; 100 nM α-MSH", "value": "completely inhibited"}, {"measurement": "effect on α-MSH-mediated intracellular tyrosinase activation", "setting": "[3]", "value": "did not"}]}
{"molecule": "O=c1cc(-c2ccccc2)oc2ccccc12", "note": "[Compound V12, 2-Phenylchromen-4-one]", "values": [{"measurement": "effect on radical scavenging activity", "setting": "[1]", "value": "no significant effect"}]}
{"molecule": "COc1cc(OC)c2c(=O)cc(-c3ccc(O)c(OC)c3)oc2c1", "note": "[Compound V6, 2-(4-Hydroxy-3-methoxyphenyl)-5,7-dimethoxy-4H-chromen-4-one]", "values": [{"measurement": "EC50", "setting": "[1]", "value": 23.7, "unit": "µM"}, {"measurement": "increase of melanin synthesis", "setting": "B16F10 melanoma cells; 10 μM derivative, 100 nM α-MSH", "value": 3.0, "unit": "fold"}]}
{"molecule": "COc1cc(-c2cc(=O)c3c(O)cccc3o2)ccc1O", "note": "[Compound V3, 5-Hydroxy-2-(4-hydroxy-3-methoxyphenyl)-4H-chromen-4-one]", "values": [{"measurement": "EC50", "setting": "[1]", "value": 23.3, "unit": "µM"}, {"measurement": "inhibition at 10 µM", "setting": "B16F10 melanoma cells; 100 nM α-MSH", "value": 50.7, "unit": "%"}, {"measurement": "reversal of α-MSH-mediated tyrosinase activation", "setting": "[3]", "value": 97, "unit": "%"}]}
{"molecule": "COc1cccc(-c2cc(=O)c3c(O)cc(OC)cc3o2)c1", "note": "[Compound V5, 5-Hydroxy-7-methoxy-2-(3-methoxyphenyl)-4H-chromen-4-one]", "values": [{"measurement": "EC50", "setting": "[1]", "value": 96.6, "unit": "µM"}, {"measurement": "inhibition at 10 µM", "setting": "B16F10 melanoma cells; 100 nM α-MSH", "value": 39.3, "unit": "%"}, {"measurement": "reversal of α-MSH-mediated tyrosinase activation", "setting": "[3]", "value": 80, "unit": "%"}]}
{"molecule": "COc1cc(OC)c2c(=O)cc(-c3ccc(OC)c(OC)c3)oc2c1", "note": "[Compound V10, 2-(3,4-Dimethoxyphenyl)-5,7-dimethoxy-4H-chromen-4-one]", "values": [{"measurement": "effect on radical scavenging activity", "setting": "[1]", "value": "no significant effect"}, {"measurement": "death rate", "setting": "[2]", "value": 24.0, "unit": "%"}, {"measurement": "effect on α-MSH-stimulated melanogenesis", "setting": "B16F10 melanoma cells; 100 nM α-MSH", "value": "not significantly changed"}, {"measurement": "effect on α-MSH-mediated intracellular tyrosinase activation", "setting": "[3]", "value": "did not"}]}
{"molecule": "α-melanocyte stimulating hormone [α–MSH, reference compound]", "values": [{"measurement": "increase of melanin content by α-MSH", "setting": "B16F10 melanoma cells; 100 nM α-MSH alone", "value": 1.9, "unit": "fold"}, {"measurement": "activation of tyrosinase by α-MSH", "setting": "[3]; 100 nM α-MSH alone", "value": "approximately 1.7 fold"}]}
{"molecule": "O=c1cc(-c2ccc(O)c(O)c2)oc2cc(O)cc(O)c12", "note": "[Compound V11, luteolin]", "values": [{"measurement": "EC50", "setting": "[1]", "value": 6.13, "unit": "µM"}, {"measurement": "IC50", "setting": "mushroom tyrosinase; [4]", "value": 36.7, "unit": "µM"}, {"measurement": "death rate", "setting": "[2]", "value": 69.7, "unit": "%"}, {"measurement": "effect on cell viability / cytotoxicity", "setting": "[2]; concentrations up to 20 μM", "value": "cytotoxicity"}]}
{"molecule": "COc1cc(O)c2c(=O)cc(-c3ccc(O)cc3)oc2c1", "note": "[Compound V4, Genkwanin]", "values": [{"measurement": "EC50", "setting": "[1]", "value": 55.7, "unit": "µM"}, {"measurement": "IC50", "setting": "mushroom tyrosinase", "value": 204, "unit": "µM"}, {"measurement": "inhibition at 10 µM", "setting": "B16F10 melanoma cells; 100 nM α-MSH", "value": 69.1, "unit": "%"}, {"measurement": "reversal of α-MSH-mediated tyrosinase activation", "setting": "[3]", "value": 100, "unit": "%"}]}
{"molecule": "OC[C@H]1O[C@@H](Oc2ccc(O)cc2)[C@H](O)[C@@H](O)[C@@H]1O", "note": "[Arbutin, arbutin, reference compound]", "values": [{"measurement": "EC50", "setting": "[1]", "value": 12.7, "unit": "µM"}]}
{"molecule": "COc1cc(O)c2c(=O)cc(-c3ccc(O)c(OC)c3)oc2c1", "note": "[Compound V1, Velutin]", "values": [{"measurement": "EC50", "setting": "[1]", "value": 23.1, "unit": "µM"}, {"measurement": "IC50", "setting": "mushroom tyrosinase; [4]", "value": 910, "unit": "µM"}, {"measurement": "effect on α-MSH-stimulated melanogenesis", "setting": "B16F10 melanoma cells; 100 nM α-MSH", "value": "completely inhibited"}, {"measurement": "reversal of α-MSH-mediated tyrosinase activation", "setting": "[3]", "value": 87, "unit": "%"}]}
{"molecule": "COc1cc(-c2cc(=O)c3c(O)cc(O)cc3o2)ccc1O", "note": "[Compound V7, Chrysoeriol]", "values": [{"measurement": "EC50", "setting": "[1]", "value": 22.1, "unit": "µM"}, {"measurement": "effect on α-MSH-stimulated melanogenesis", "setting": "B16F10 melanoma cells; 100 nM α-MSH", "value": "not significantly changed; also recorded: no effect"}, {"measurement": "effect on α-MSH-mediated intracellular tyrosinase activation", "setting": "[3]", "value": "did not; also recorded: no effect"}]}
